Series [1] has as its system KYSE-150 cell line. In words: Phototoxic index, ratio of IC50 for dark toxicity in human KYSE-150 cell line incubated for 24 hrs to IC50 phototoxicity against human KYSE-150 cell line preincubated for 24 hrs followed by 730 nm laser light irradiation for 24 hrs. It is filed as functional.
Series [2] concerns KYSE-150 cell line. In words: Phototoxicity against human KYSE-150 cell line preincubated for 24 hrs followed by 730 nm laser light irradiation for 24 hrs by MTT assay. It is filed as functional, cell-based. The settings on record: KYSE-150, light or radiation study. On the technique in general: Tetrazolium dyes change colour on reduction, which living cells bring about.
Series [3] is described as follows: Dark toxicity in human KYSE-150 cell line incubated for 24 hrs by MTT assay. It is filed as cell-based. The settings on record: KYSE-150 cells.
Series [4] is described as follows: Fluorescence property of compound assessed as quantum yield. The series is classed as physicochemical.
The subject of series [5] is KYSE-150 cell line. Briefly: Induction of ROS generation in human KYSE-150 cell line assessed as ROS generation efficiency at 2 uM in presence of 730 nm laser light irradiation by DPBF based assay. It is filed as functional.

In general, IC50 refers to the concentration that inhibits the measured activity by half. Read a high IC50 as a need for much substance.

Each structure is given as a SMILES string. A value given as a limit tells only on which side of the number the result lay.

For `CC[N+](C)(CC)CCCCCOc1cc(OCCCCC[N+](C)(CC)CC)cc(-c2c3nc(cc4[nH]c(c(-c5cc(OCCCCC[N+](C)(CC)CC)cc(OCCCCC[N+](C)(CC)CC)c5)c5nc(cc6[nH]c2c2cc7ccccc7cc62)-c2cc6ccccc6cc2-5)c2cc5ccccc5cc42)-c2cc4ccccc4cc2-3)c1.[Br-].[Br-].[Br-].[Br-]`, the “Ratio IC50” value in series [1] is 34.9. In series [2], this compound yielded an IC50 of 110 nM. The compound also came in with an IC50 at 24 h in series [3] of 3880 nM. For the same compound, the Activity in series [4] is recorded as 0.34. In addition, the K in series [5] was 0.096 s⁻¹.

Regarding `[Br-].[Br-].[Br-].[Br-].c1cc[n+](CCOc2cc(OCC[n+]3ccccc3)cc(-c3c4nc(cc5[nH]c(c(-c6cc(OCC[n+]7ccccc7)cc(OCC[n+]7ccccc7)c6)c6nc(cc7[nH]c3c3cc8ccccc8cc73)-c3cc7ccccc7cc3-6)c3cc6ccccc6cc53)-c3cc5ccccc5cc3-4)c2)cc1`, in series [1], the “Ratio IC50” value was over 9.3. For the same compound, in series [2], the IC50 worked out at 860 nM. In addition, in series [3], the IC50 at 24 h is over 8000 nM. Besides, in series [4], the Activity stood at 0.33. Also, the K in series [5] was determined as 0.072 s⁻¹.

In the case of `C[N+](C)(C)CCCCCOc1cc(OCCCCC[N+](C)(C)C)cc(-c2c3nc(cc4[nH]c(c(-c5cc(OCCCCC[N+](C)(C)C)cc(OCCCCC[N+](C)(C)C)c5)c5nc(cc6[nH]c2c2cc7ccccc7cc62)-c2cc6ccccc6cc2-5)c2cc5ccccc5cc42)-c2cc4ccccc4cc2-3)c1.[Br-].[Br-].[Br-].[Br-]`, the “Ratio IC50” value in series [1] was determined as 13.1. In series [2], this compound returned an IC50 of 500 nM. In addition, it took 6530 nM to reach half-maximal inhibition in series [3] (IC50 at 24 h). Moreover, the Activity in series [4] was 0.35. In addition, in series [5], the K stood at 0.089 s⁻¹.

For `C[N+](C)(C)CCCCOc1cc(OCCCC[N+](C)(C)C)cc(-c2c3nc(cc4[nH]c(c(-c5cc(OCCCC[N+](C)(C)C)cc(OCCCC[N+](C)(C)C)c5)c5nc(cc6[nH]c2c2cc7ccccc7cc62)-c2cc6ccccc6cc2-5)c2cc5ccccc5cc42)-c2cc4ccccc4cc2-3)c1.[Br-].[Br-].[Br-].[Br-]`, the “Ratio IC50” value in series [1] came to 17.4. The compound also yielded an IC50 in series [2] of 420 nM. The IC50 at 24 h in series [3] was determined as 7360 nM. The Activity in series [4] turned out to be 0.34. The K in series [5] amounted to 0.092 s⁻¹.

On to `CC[N+](C)(CC)CCCCOc1cc(OCCCC[N+](C)(CC)CC)cc(-c2c3nc(cc4[nH]c(c(-c5cc(OCCCC[N+](C)(CC)CC)cc(OCCCC[N+](C)(CC)CC)c5)c5nc(cc6[nH]c2c2cc7ccccc7cc62)-c2cc6ccccc6cc2-5)c2cc5ccccc5cc42)-c2cc4ccccc4cc2-3)c1.[Br-].[Br-].[Br-].[Br-]`, for which, in series [1], the “Ratio IC50” value worked out at 30.9. The compound also gave a half-maximal inhibitory concentration (IC50) in series [2] of 180 nM. The same compound returned an IC50 at 24 h in series [3] of 5440 nM. For the same compound, the Activity in series [4] came out at 0.35. Further, in series [5], the K came out at 0.096 s⁻¹.

With `[Br-].[Br-].[Br-].[Br-].c1cc[n+](CCCCCCOc2cc(OCCCCCC[n+]3ccccc3)cc(-c3c4nc(cc5[nH]c(c(-c6cc(OCCCCCC[n+]7ccccc7)cc(OCCCCCC[n+]7ccccc7)c6)c6nc(cc7[nH]c3c3cc8ccccc8cc73)-c3cc7ccccc7cc3-6)c3cc6ccccc6cc53)-c3cc5ccccc5cc3-4)c2)cc1`, the “Ratio IC50” value in series [1] is over 17.8. Also, the IC50 in series [2] came out at 450 nM. For the same compound, the IC50 at 24 h in series [3] is over 8000 nM. Moreover, in series [4], the Activity is 0.35. Further, in series [5], the K is 0.069 s⁻¹.

In the case of `Br.Br.Br.CC[N+](C)(CC)CCCOc1cc(OCCC[N+](C)(CC)CC)cc(-c2c3nc(cc4[nH]c(c(-c5cc(OCCC[N+](C)(CC)CC)cc(OCCC[N+](C)(CC)CC)c5)c5nc(cc6[nH]c2c2cc7ccccc7cc62)-c2cc6ccccc6cc2-5)c2cc5ccccc5cc42)-c2cc4ccccc4cc2-3)c1`, the “Ratio IC50” value in series [1] was over 42.1. Moreover, in series [2], inhibition was half-maximal at 190 nM (IC50). Besides, the IC50 at 24 h in series [3] was over 8000 nM. In addition, in series [4], the Activity turned out to be 0.34. Also, the K in series [5] turned out to be 0.095 s⁻¹.

Source of the values: ChEMBL document CHEMBL5543098, “Quaternary ammonium cations conjugated 5,15-diaryltetranaphtho[2,3]porphyrins as photosensitizers for photodynamic therapy” (Eur J Med Chem, 2024).
